Results: patent publication US20070015733A1, “Aryl Phosphate Derivatives of d4T having Activity Against Resistant HIV Strains” (Parker Hughes Institute, priority 1998, published 2007)
Where two headings read alike, the source gives them in different places.

Columns and labels:
[1] = test system: NRTI-resistant recombinant HIV-1 isolates; conditions: cited from earlier work
[2] = test system: NRTI-resistant recombinant HIV-1 isolates; test: Documented fold decreased susceptibility of recombinant HIV-1 clones; format: cell-based; conditions: for mean reduction in susceptibility: mean over 6 recombinant clones; for median reduction in susceptibility: median over 6 recombinant clones
[3] = test system: NRTI-resistant recombinant HIV-1 isolates; test: RT activity assay, multi-NRTI-resistant recombinant HIV-1 clones; format: cell-based
[4] = test system: AZT- and NNI-resistant HIV-1 (strain: RTMDR-1); test: Inhibition of RTMDR-1 (HIV-MDR) replication in PBMNC (RT activity); format: cell-based
Description: Cellular Assays of Anti-HIV Activity and Cytotoxicity. […] Percent viral inhibition was calculated by comparing the RT activity values from the test substance-treated infected cells with RT values from untreated infected cells (i.e., virus controls).

[5] = test system: zidovudine-resistant primary clinical HIV-1 isolates in CD4-expressing HeLa cell line HT4-6C; test: Syncytial focus (plaque) formation assay in HT4-6C cells; format: cell-based; conditions: Human immunodeficiency virus 1, HeLa
Description: Plaque formation assays. The syncytial focus (plaque) assay permits quantitation of infectivity of HIV. In brief, a CD4-expressing HeLa cell line (HT4-6C) (AIDS Research and Reference Reagent Program, NIAID) is cultured in 24-well tissue culture plates at 2.5-3.0×10^4 cells/ml in the presence of virus inoculum (100 plaque forming units) and several concentrations of the antiviral agent. The virus was added first for a 2 hr incubation time prior to addition of the antiviral agents. […] Percent inhibition of plaque formation was calculated by comparing the plaque numbers from the test substance-treated infected cells with the plaque numbers from untreated infected cells (i.e., virus controls).

[6] = Stability in plasma, whole blood, gastric fluid and intestinal fluid; format: in vitro ADME
Description: Ala-d4T-MP is stable both in plasma and in whole blood. […] This hypothesis is consistent with the formation of a significant amount of d4T after incubation of d4T-5′-[p-bromophenyl methoxyalaninyl phosphate] with a liver homogenate.
Orally administered d4T-5′-[p-bromophenyl methoxyalaninyl phosphate] also yielded Ala-d4T-MP and d4T as the major metabolites. […] This metabolite can be absorbed in the intestine and then further metabolized to yield d4T in the blood. The tmax and t1/2 values for d4T in mice were longer when derived from orally administered d4T-5′-[p-bromophenyl methoxyalaninyl phosphate] (42.4 minutes and 99.0 minutes, respectively) than from orally administered d4T (5 minutes and 18 minutes, respectively). The tmax value is higher but the t1/2 value is lower for orally administered d4T-5′-[p-bromophenyl methoxyalaninyl phosphate] compared to intravenously administered d4T-5′-[p-bromophenyl methoxyalaninyl phosphate]. […] However, the bioavailability of d4T metabolized from d4T-5′-[p-bromophenyl methoxyalaninyl phosphate] (48%) was lower than that of orally administered d4T (98%).

[7] = cited from earlier work
[8] = Human immunodeficiency virus 1, read-out: IC50 (nM), RT, recombinant clone 1617-1
[9] = Human immunodeficiency virus 1, read-out: IC50 (nM), RT, recombinant clone 4755-5
[10] = Human immunodeficiency virus 1, read-out: IC50 (nM), RT, recombinant clone 7295-1
[11] = Human immunodeficiency virus 1, read-out: IC50 (nM), RT, recombinant clone 7324-1
[12] = Human immunodeficiency virus 1, read-out: IC50 (nM), RT, recombinant clone 52534-2
[13] = Human immunodeficiency virus 1, read-out: IC50 (nM), RT, recombinant clone 56252-1
[14] = Human immunodeficiency virus 1, read-out: mean IC50, RT, mean over 6 multi-NRTI-resistant clones
[15] = Human immunodeficiency virus 1, read-out: HIV-MDR IC50 [RT]
[16] = Human immunodeficiency virus 1, read-out: IC50 against HIV-MDR
[17] = Human immunodeficiency virus 1, read-out: RTMDR-1 IC50 [RT]
[18] = read-out: IC50, μM(Plaque Assay), Mean ± SE, mean over 9 zidovudine-resistant isolates
[19] = read-out: IC50, μM(Plaque Assay), isolate G190-6 (M41L, D67N, K70R, T215Y, K219Q)
[20] = read-out: IC50, μM(Plaque Assay), isolate G691-2 (mutations N.D.)
[21] = read-out: IC50, μM(Plaque Assay), isolate G704-2 (M41L, D67N, K70R, L210W, T215Y)
[22] = read-out: IC50, μM(Plaque Assay), isolate G780-1 (M41L, D67N, K70R, T215F, K219Q)
[23] = read-out: IC50, μM(Plaque Assay), isolate G890-1 (K20R, M41L, D67N, T69N, K70R, L210W, T215Y)
[24] = read-out: IC50, μM(Plaque Assay), isolate H112-2 (no RT mutation, ZDV-sensitive control)
[25] = read-out: IC50, μM(Plaque Assay), isolate J179-1 (M41L, D67N, L210W, T215Y)
[26] = read-out: IC50, μM(Plaque Assay), isolate M709-1 (L1210W, T215Y)
[27] = read-out: IC50, μM(Plaque Assay), isolate Q252-2 (M41L, L210W, T215Y)
[28] = read-out: IC50, μM(Plaque Assay), isolate U317-8 (M41L, L210W, T215Y)
[29] = multi-NRTI-resistant clones, IC50 RT

Compound: Cc1cn([C@H]2C=C[C@@H](CO)O2)c(=O)[nH]c1=O [d4T, 2′,3′-didehydro-2′,3′-dideoxythymidine]
- Fold decreased susceptibility ([1]; recombinant clone 1617-1): 11 fold
- Fold decreased susceptibility ([1]; recombinant clone 4755-5): 3.9 fold
- Fold decreased susceptibility ([1]; recombinant clone 7295-1): 1.9 fold
- Fold decreased susceptibility ([1]; recombinant clone 7324-1): 2.6 fold
- Fold decreased susceptibility ([1]; recombinant clone 52534-2): 9 fold
- Fold decreased susceptibility ([1]; recombinant clone 56252-1): 20 fold
- mean reduction in susceptibility [2]: 8.1 fold
- median reduction in susceptibility [2]: 6.5 fold

Compound: Cc1cn([C@H]2C[C@H](N=[N+]=[N-])[C@@H](CO)O2)c(=O)[nH]c1=O [AZT, 3′-azido-3′-deoxythymidine]
- IC50 [3, 8]: 174 nM
- IC50 [3, 9]: 15.4 nM
- IC50 [3, 10]: 0.8 nM
- IC50 [3, 11]: 108 nM
- IC50 [3, 12]: 54.8 nM
- IC50 [3, 13]: 187 nM
- IC50 [3, 14]: 90 ± 32.4 nM
- IC50 [4, 15]: 2000 nM
- IC50 [4, 16]: 2000 nM
- IC50 [4, 17]: 2000 nM
- antiviral activity against RTMDR-1 (in words) ([4]; PBMNC): not effective
- Fold decreased susceptibility ([1]; recombinant clone 1617-1): 261 fold
- Fold decreased susceptibility ([1]; recombinant clone 4755-5): 61 fold
- Fold decreased susceptibility ([1]; recombinant clone 7295-1): 9.9 fold
- Fold decreased susceptibility ([1]; recombinant clone 7324-1): 923 fold
- Fold decreased susceptibility ([1]; recombinant clone 52534-2): 719 fold
- Fold decreased susceptibility ([1]; recombinant clone 56252-1): >1000 fold
- IC50 [5, 18]: 3.9 ± 1 µM
- IC50 [5, 19]: 10 µM
- IC50 [5, 20]: 7.8 µM
- IC50 [5, 21]: 5.7 µM
- IC50 [5, 22]: 1.8 µM
- IC50 [5, 23]: 3.6 µM
- IC50 [5, 24]: 0.015 µM
- IC50 [5, 25]: 2.6 µM
- IC50 [5, 26]: 3 µM
- IC50 [5, 27]: 2.8 µM
- IC50 [5, 28]: 2 µM
- mean reduction in susceptibility [2]: 495.7 fold
- median reduction in susceptibility [2]: 490 fold

Compound: COC(=O)C(C)NP(=O)(OC[C@@H]1C=C[C@H](n2cc(C)c(=O)[nH]c2=O)O1)Oc1ccc(Br)cc1 (stereo partly shown) [Compound 1c, d4T-5′-[p-bromo-phenylmethoxyalaninyl phosphate]]
- IC50 [3, 8]: 5.8 nM
- IC50 [3, 9]: 0.6 nM
- IC50 [3, 10]: 0.2 nM
- IC50 [3, 11]: 0.8 nM
- IC50 [3, 12]: 4.6 nM
- IC50 [3, 13]: 6.3 nM
- IC50 [3, 14]: 3.1 ± 1.2 nM
- logs more potent than lamivudine [3, 29]: > 3.4 logs
- logs more potent than zidovudine(AZT) [3, 29]: > 1.4 logs
- IC50 [4, 15]: 20 nM
- IC50 [4, 16]: 20 nM
- IC50 [4, 17]: 20 nM
- IC50 [5, 18]: 0.0794 ± 0.0187 µM
- IC50 [5, 19]: 0.1 µM
- IC50 [5, 20]: 0.06 µM
- IC50 [5, 21]: 0.08 µM
- IC50 [5, 22]: 0.015 µM
- IC50 [5, 23]: 0.04 µM
- IC50 [5, 24]: 0.015 µM
- IC50 [5, 25]: 0.18 µM
- IC50 [5, 26]: 0.08 µM
- IC50 [5, 27]: 0.11 µM
- IC50 [5, 28]: 0.03 µM
- IC50 ([5]; read-out: mean IC50 value (plaque assay), mean over 9 zidovudine-resistant isolates): 0.0794 ± 0.0187 µM
- stability in gastric fluid ([6]; gastric fluid): stable in gastric fluid
- stability in intestinal fluid ([6]; intestinal fluid, forms Ala-d4T-MP): decomposes readily in intestinal fluid
- stability in plasma and whole blood ([6]; plasma or whole blood): readily metabolizes
- toxicity on daily administration ([7]; intraperitoneally or orally for up to 8 consecutive weeks, cumulative dose levels as high as 6.4 g/kg): not associated with any detectable toxicity
- acute or subacute toxicity ([7]; single intraperitoneal or oral bolus dose levels as high as 500 mg/kg): without any detectable acute or subacute toxicity
